In patent publication US6114310A, “Efflux pump inhibitors” (priority 1998, dated 2000):

Test system: Pseudomonas aeruginosa PAM1001
Assay: microbe, parasite or virus in culture
Format: cell-based
In short: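 Checkerboard broth microdilution (NCCLS) with the efflux pump inhibitor and levofloxacin, each diluted along one axis of the plate, in Mueller Hinton Broth. Inoculum 5×10^5 CFU/ml from early-log culture; incubation 20 h at 35° C. Growth read at 650 nm and visually.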

[1] = Table 1, EPI Conc. μg/ml (number not given; column between 10 and 40 μg/ml)
[2] = Table 2, EPI Conc. μg/ml (number not given; column between 10 and 40 μg/ml)
[3] = Table 3, EPI Conc. μg/ml (number not given; column between 10 and 40 μg/ml)
[4] = Table 4, EPI Conc. μg/ml (number not given; column between 10 and 40 μg/ml)

## D-Ornithyl-β-[N-(isobutyl)]alanine quinoline-3-amide [Compound 40 (Table 3)]
Table 1, EPI Conc. 0 μg/ml
  Levofloxacin MIC Against P. aeruginosa PAM1001 in Presence of Efflux Pump Inhibitor (EPI), Minimum Inhibitory Concentration: 4 µg/mL
Table 1, EPI Conc. 0.625 μg/ml
  Levofloxacin MIC Against P. aeruginosa PAM1001 in Presence of Efflux Pump Inhibitor (EPI), Minimum Inhibitory Concentration: 4 µg/mL
Table 1, EPI Conc. 5 μg/ml
  Levofloxacin MIC Against P. aeruginosa PAM1001 in Presence of Efflux Pump Inhibitor (EPI), Minimum Inhibitory Concentration: 1 µg/mL
Table 1, EPI Conc. 10 μg/ml
  Levofloxacin MIC Against P. aeruginosa PAM1001 in Presence of Efflux Pump Inhibitor (EPI), Minimum Inhibitory Concentration: 0.06 µg/mL
Table 1, EPI Conc. 40 μg/ml
  Levofloxacin MIC Against P. aeruginosa PAM1001 in Presence of Efflux Pump Inhibitor (EPI), Minimum Inhibitory Concentration: 0.015 µg/mL
Table 1, EPI Conc. […]
  Levofloxacin MIC Against P. aeruginosa PAM1001 in Presence of Efflux Pump Inhibitor (EPI), Minimum Inhibitory Concentration: 4 µg/mL
[1]
  Levofloxacin MIC Against P. aeruginosa PAM1001 in Presence of Efflux Pump Inhibitor (EPI), Minimum Inhibitory Concentration: 0.03 µg/mL
Table 2, EPI Conc. 0 μg/ml
  Levofloxacin MIC Against P. aeruginosa PAM1001 in Presence of Efflux Pump Inhibitor (EPI), Minimum Inhibitory Concentration: 4 µg/mL
Table 2, EPI Conc. 0.625 μg/ml
  Levofloxacin MIC Against P. aeruginosa PAM1001 in Presence of Efflux Pump Inhibitor (EPI), Minimum Inhibitory Concentration: 4 µg/mL
Table 2, EPI Conc. 5 μg/ml
  Levofloxacin MIC Against P. aeruginosa PAM1001 in Presence of Efflux Pump Inhibitor (EPI), Minimum Inhibitory Concentration: 1 µg/mL
Table 2, EPI Conc. 10 μg/ml
  Levofloxacin MIC Against P. aeruginosa PAM1001 in Presence of Efflux Pump Inhibitor (EPI), Minimum Inhibitory Concentration: 0.06 µg/mL
Table 2, EPI Conc. 40 μg/ml
  Levofloxacin MIC Against P. aeruginosa PAM1001 in Presence of Efflux Pump Inhibitor (EPI), Minimum Inhibitory Concentration: 0.06 µg/mL
[2]
  Levofloxacin MIC Against P. aeruginosa PAM1001 in Presence of Efflux Pump Inhibitor (EPI), Minimum Inhibitory Concentration: 0.06 µg/mL
Table 3, EPI Conc. 0 μg/ml
  Levofloxacin MIC Against P. aeruginosa PAM1001 in Presence of Efflux Pump Inhibitor (EPI), Minimum Inhibitory Concentration: 4 µg/mL
Table 3, EPI Conc. 0.625 μg/ml
  Levofloxacin MIC Against P. aeruginosa PAM1001 in Presence of Efflux Pump Inhibitor (EPI), Minimum Inhibitory Concentration: 4 µg/mL
Table 3, EPI Conc. 5 μg/ml
  Levofloxacin MIC Against P. aeruginosa PAM1001 in Presence of Efflux Pump Inhibitor (EPI), Minimum Inhibitory Concentration: 0.06 µg/mL
Table 3, EPI Conc. 10 μg/ml
  Levofloxacin MIC Against P. aeruginosa PAM1001 in Presence of Efflux Pump Inhibitor (EPI), Minimum Inhibitory Concentration: 0.015 µg/mL
Table 3, EPI Conc. 40 μg/ml
  Levofloxacin MIC Against P. aeruginosa PAM1001 in Presence of Efflux Pump Inhibitor (EPI), Minimum Inhibitory Concentration: 0.015 µg/mL
[3]
  Levofloxacin MIC Against P. aeruginosa PAM1001 in Presence of Efflux Pump Inhibitor (EPI), Minimum Inhibitory Concentration: 0.015 µg/mL
Table 4, EPI Conc. 0 μg/ml
  Levofloxacin MIC Against P. aeruginosa PAM1001 in Presence of Efflux Pump Inhibitor (EPI), Minimum Inhibitory Concentration: 4 µg/mL
Table 4, EPI Conc. 0.625 μg/ml
  Levofloxacin MIC Against P. aeruginosa PAM1001 in Presence of Efflux Pump Inhibitor (EPI), Minimum Inhibitory Concentration: 4 µg/mL
Table 4, EPI Conc. 5 μg/ml
  Levofloxacin MIC Against P. aeruginosa PAM1001 in Presence of Efflux Pump Inhibitor (EPI), Minimum Inhibitory Concentration: 1 µg/mL
Table 4, EPI Conc. 10 μg/ml
  Levofloxacin MIC Against P. aeruginosa PAM1001 in Presence of Efflux Pump Inhibitor (EPI), Minimum Inhibitory Concentration: 0.25 µg/mL
Table 4, EPI Conc. 40 μg/ml
  Levofloxacin MIC Against P. aeruginosa PAM1001 in Presence of Efflux Pump Inhibitor (EPI), Minimum Inhibitory Concentration: 0.06 µg/mL
[4]
  Levofloxacin MIC Against P. aeruginosa PAM1001 in Presence of Efflux Pump Inhibitor (EPI), Minimum Inhibitory Concentration: 0.06 µg/mL

## Phenylalanyl-Nα -methylornithine 2-(naphthylmethyl)amide [Compound 17 (Table 1)]
Table 1, EPI Conc. 0 μg/ml
  Levofloxacin MIC Against P. aeruginosa PAM1001 in Presence of Efflux Pump Inhibitor (EPI), Minimum Inhibitory Concentration: 4 µg/mL
Table 1, EPI Conc. 0.625 μg/ml
  Levofloxacin MIC Against P. aeruginosa PAM1001 in Presence of Efflux Pump Inhibitor (EPI), Minimum Inhibitory Concentration: 4 µg/mL
Table 1, EPI Conc. 5 μg/ml
  Levofloxacin MIC Against P. aeruginosa PAM1001 in Presence of Efflux Pump Inhibitor (EPI), Minimum Inhibitory Concentration: 0.25 µg/mL
Table 1, EPI Conc. 10 μg/ml
  Levofloxacin MIC Against P. aeruginosa PAM1001 in Presence of Efflux Pump Inhibitor (EPI), Minimum Inhibitory Concentration: 0.125 µg/mL
Table 1, EPI Conc. 40 μg/ml
  Levofloxacin MIC Against P. aeruginosa PAM1001 in Presence of Efflux Pump Inhibitor (EPI), Minimum Inhibitory Concentration: 0.125 µg/mL
[1]
  Levofloxacin MIC Against P. aeruginosa PAM1001 in Presence of Efflux Pump Inhibitor (EPI), Minimum Inhibitory Concentration: 0.06 µg/mL
Table 2, EPI Conc. 0 μg/ml
  Levofloxacin MIC Against P. aeruginosa PAM1001 in Presence of Efflux Pump Inhibitor (EPI), Minimum Inhibitory Concentration: 4 µg/mL
Table 2, EPI Conc. 0.625 μg/ml
  Levofloxacin MIC Against P. aeruginosa PAM1001 in Presence of Efflux Pump Inhibitor (EPI), Minimum Inhibitory Concentration: 4 µg/mL
Table 2, EPI Conc. 5 μg/ml
  Levofloxacin MIC Against P. aeruginosa PAM1001 in Presence of Efflux Pump Inhibitor (EPI), Minimum Inhibitory Concentration: 4 µg/mL
Table 2, EPI Conc. 10 μg/ml
  Levofloxacin MIC Against P. aeruginosa PAM1001 in Presence of Efflux Pump Inhibitor (EPI), Minimum Inhibitory Concentration: 2 µg/mL
Table 2, EPI Conc. 40 μg/ml
  Levofloxacin MIC Against P. aeruginosa PAM1001 in Presence of Efflux Pump Inhibitor (EPI), Minimum Inhibitory Concentration: 0.03 µg/mL
Table 2, EPI Conc. […]
  Levofloxacin MIC Against P. aeruginosa PAM1001 in Presence of Efflux Pump Inhibitor (EPI), Minimum Inhibitory Concentration: 4 µg/mL
[2]
  Levofloxacin MIC Against P. aeruginosa PAM1001 in Presence of Efflux Pump Inhibitor (EPI), Minimum Inhibitory Concentration: 0.50 µg/mL
Table 3, EPI Conc. 0 μg/ml
  Levofloxacin MIC Against P. aeruginosa PAM1001 in Presence of Efflux Pump Inhibitor (EPI), Minimum Inhibitory Concentration: 4 µg/mL
Table 3, EPI Conc. 0.625 μg/ml
  Levofloxacin MIC Against P. aeruginosa PAM1001 in Presence of Efflux Pump Inhibitor (EPI), Minimum Inhibitory Concentration: 4 µg/mL
Table 3, EPI Conc. 5 μg/ml
  Levofloxacin MIC Against P. aeruginosa PAM1001 in Presence of Efflux Pump Inhibitor (EPI), Minimum Inhibitory Concentration: 4 µg/mL
Table 3, EPI Conc. 10 μg/ml
  Levofloxacin MIC Against P. aeruginosa PAM1001 in Presence of Efflux Pump Inhibitor (EPI), Minimum Inhibitory Concentration: 2 µg/mL
Table 3, EPI Conc. 40 μg/ml
  Levofloxacin MIC Against P. aeruginosa PAM1001 in Presence of Efflux Pump Inhibitor (EPI), Minimum Inhibitory Concentration: 0.25 µg/mL
Table 3, EPI Conc. […]
  Levofloxacin MIC Against P. aeruginosa PAM1001 in Presence of Efflux Pump Inhibitor (EPI), Minimum Inhibitory Concentration: 4 µg/mL
[3]
  Levofloxacin MIC Against P. aeruginosa PAM1001 in Presence of Efflux Pump Inhibitor (EPI), Minimum Inhibitory Concentration: 1 µg/mL
Table 4, EPI Conc. 0 μg/ml
  Levofloxacin MIC Against P. aeruginosa PAM1001 in Presence of Efflux Pump Inhibitor (EPI), Minimum Inhibitory Concentration: 4 µg/mL
Table 4, EPI Conc. 0.625 μg/ml
  Levofloxacin MIC Against P. aeruginosa PAM1001 in Presence of Efflux Pump Inhibitor (EPI), Minimum Inhibitory Concentration: 4 µg/mL
Table 4, EPI Conc. 5 μg/ml
  Levofloxacin MIC Against P. aeruginosa PAM1001 in Presence of Efflux Pump Inhibitor (EPI), Minimum Inhibitory Concentration: 0.50 µg/mL
Table 4, EPI Conc. 10 μg/ml
  Levofloxacin MIC Against P. aeruginosa PAM1001 in Presence of Efflux Pump Inhibitor (EPI), Minimum Inhibitory Concentration: 0.125 µg/mL
Table 4, EPI Conc. 40 μg/ml
  Levofloxacin MIC Against P. aeruginosa PAM1001 in Presence of Efflux Pump Inhibitor (EPI), Minimum Inhibitory Concentration: 0.125 µg/mL
[4]
  Levofloxacin MIC Against P. aeruginosa PAM1001 in Presence of Efflux Pump Inhibitor (EPI), Minimum Inhibitory Concentration: 0.125 µg/mL

## β-(2-Thiaizolyl)alanyl-Nα -methylornithine 2-naphthylamide [Compound 30 (Table 1)]
Table 1, EPI Conc. 0 μg/ml
  Levofloxacin MIC Against P. aeruginosa PAM1001 in Presence of Efflux Pump Inhibitor (EPI), Minimum Inhibitory Concentration: 4 µg/mL
Table 1, EPI Conc. 0.625 μg/ml
  Levofloxacin MIC Against P. aeruginosa PAM1001 in Presence of Efflux Pump Inhibitor (EPI), Minimum Inhibitory Concentration: 4 µg/mL
Table 1, EPI Conc. 5 μg/ml
  Levofloxacin MIC Against P. aeruginosa PAM1001 in Presence of Efflux Pump Inhibitor (EPI), Minimum Inhibitory Concentration: 1 µg/mL
Table 1, EPI Conc. 10 μg/ml
  Levofloxacin MIC Against P. aeruginosa PAM1001 in Presence of Efflux Pump Inhibitor (EPI), Minimum Inhibitory Concentration: 0.25 µg/mL
Table 1, EPI Conc. 40 μg/ml
  Levofloxacin MIC Against P. aeruginosa PAM1001 in Presence of Efflux Pump Inhibitor (EPI), Minimum Inhibitory Concentration: 0.25 µg/mL
[1]
  Levofloxacin MIC Against P. aeruginosa PAM1001 in Presence of Efflux Pump Inhibitor (EPI), Minimum Inhibitory Concentration: 0.25 µg/mL
Table 2, EPI Conc. 0 μg/ml
  Levofloxacin MIC Against P. aeruginosa PAM1001 in Presence of Efflux Pump Inhibitor (EPI), Minimum Inhibitory Concentration: 4 µg/mL
Table 2, EPI Conc. 0.625 μg/ml
  Levofloxacin MIC Against P. aeruginosa PAM1001 in Presence of Efflux Pump Inhibitor (EPI), Minimum Inhibitory Concentration: 4 µg/mL
Table 2, EPI Conc. 5 μg/ml
  Levofloxacin MIC Against P. aeruginosa PAM1001 in Presence of Efflux Pump Inhibitor (EPI), Minimum Inhibitory Concentration: 2 µg/mL
Table 2, EPI Conc. 10 μg/ml
  Levofloxacin MIC Against P. aeruginosa PAM1001 in Presence of Efflux Pump Inhibitor (EPI), Minimum Inhibitory Concentration: 1 µg/mL
Table 2, EPI Conc. 40 μg/ml
  Levofloxacin MIC Against P. aeruginosa PAM1001 in Presence of Efflux Pump Inhibitor (EPI), Minimum Inhibitory Concentration: 0.25 µg/mL
Table 2, EPI Conc. […]
  Levofloxacin MIC Against P. aeruginosa PAM1001 in Presence of Efflux Pump Inhibitor (EPI), Minimum Inhibitory Concentration: 4 µg/mL
[2]
  Levofloxacin MIC Against P. aeruginosa PAM1001 in Presence of Efflux Pump Inhibitor (EPI), Minimum Inhibitory Concentration: 0.50 µg/mL
